# Measurements: patent US20140004243A1, “SALTY TASTE ENHANCER” (AJINOMOTO CO., INC., priority 2011, published 2014)
# Target: T1, Human ENaC δ, β and γ subunit (Homo sapiens, UniProt P51168+P51170+P51172)
# T1 construct: expressed in transfected cells; host or cells: Xenopus laevis (African clawed frog) oocytes injected with cRNA
# T1 sequence (P51172 1-802): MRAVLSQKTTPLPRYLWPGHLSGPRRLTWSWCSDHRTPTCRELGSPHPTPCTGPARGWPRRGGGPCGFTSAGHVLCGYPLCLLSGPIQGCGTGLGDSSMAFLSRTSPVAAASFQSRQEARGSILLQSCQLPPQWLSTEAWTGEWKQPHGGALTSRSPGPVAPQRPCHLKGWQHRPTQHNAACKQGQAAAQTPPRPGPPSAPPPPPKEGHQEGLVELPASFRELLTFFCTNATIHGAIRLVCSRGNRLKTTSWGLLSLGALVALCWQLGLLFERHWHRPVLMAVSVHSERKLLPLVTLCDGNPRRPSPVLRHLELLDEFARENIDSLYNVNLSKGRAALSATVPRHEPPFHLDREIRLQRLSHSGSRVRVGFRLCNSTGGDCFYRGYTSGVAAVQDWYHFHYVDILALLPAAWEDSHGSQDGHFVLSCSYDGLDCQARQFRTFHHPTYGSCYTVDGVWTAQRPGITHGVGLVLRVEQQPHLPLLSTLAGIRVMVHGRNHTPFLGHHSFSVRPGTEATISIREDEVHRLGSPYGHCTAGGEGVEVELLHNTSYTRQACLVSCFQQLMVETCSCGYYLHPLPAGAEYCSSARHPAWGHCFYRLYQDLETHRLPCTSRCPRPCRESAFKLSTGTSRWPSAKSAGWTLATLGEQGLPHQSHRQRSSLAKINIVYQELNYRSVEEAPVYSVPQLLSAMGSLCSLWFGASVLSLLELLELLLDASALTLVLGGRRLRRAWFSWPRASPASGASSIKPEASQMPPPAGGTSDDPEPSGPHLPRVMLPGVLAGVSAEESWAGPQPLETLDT
# T1 sequence (P51168 1-640): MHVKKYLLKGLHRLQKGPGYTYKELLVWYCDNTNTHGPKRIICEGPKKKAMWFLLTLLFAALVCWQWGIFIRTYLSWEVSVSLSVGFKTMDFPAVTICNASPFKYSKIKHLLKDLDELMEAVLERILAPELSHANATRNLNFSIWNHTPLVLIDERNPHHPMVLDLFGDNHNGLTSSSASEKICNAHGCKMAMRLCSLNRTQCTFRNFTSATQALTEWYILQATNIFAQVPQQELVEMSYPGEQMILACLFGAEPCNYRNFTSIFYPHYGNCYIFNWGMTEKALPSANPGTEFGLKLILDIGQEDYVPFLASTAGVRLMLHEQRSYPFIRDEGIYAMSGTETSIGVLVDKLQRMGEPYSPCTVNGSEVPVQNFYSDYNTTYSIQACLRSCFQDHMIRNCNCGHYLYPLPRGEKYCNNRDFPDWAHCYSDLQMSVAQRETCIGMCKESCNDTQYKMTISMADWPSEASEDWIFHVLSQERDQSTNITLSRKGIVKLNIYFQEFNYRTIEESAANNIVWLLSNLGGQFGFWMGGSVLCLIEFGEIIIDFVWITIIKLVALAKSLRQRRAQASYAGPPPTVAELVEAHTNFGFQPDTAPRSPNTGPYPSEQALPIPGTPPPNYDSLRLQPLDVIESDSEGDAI
# T1 sequence (P51170 1-649): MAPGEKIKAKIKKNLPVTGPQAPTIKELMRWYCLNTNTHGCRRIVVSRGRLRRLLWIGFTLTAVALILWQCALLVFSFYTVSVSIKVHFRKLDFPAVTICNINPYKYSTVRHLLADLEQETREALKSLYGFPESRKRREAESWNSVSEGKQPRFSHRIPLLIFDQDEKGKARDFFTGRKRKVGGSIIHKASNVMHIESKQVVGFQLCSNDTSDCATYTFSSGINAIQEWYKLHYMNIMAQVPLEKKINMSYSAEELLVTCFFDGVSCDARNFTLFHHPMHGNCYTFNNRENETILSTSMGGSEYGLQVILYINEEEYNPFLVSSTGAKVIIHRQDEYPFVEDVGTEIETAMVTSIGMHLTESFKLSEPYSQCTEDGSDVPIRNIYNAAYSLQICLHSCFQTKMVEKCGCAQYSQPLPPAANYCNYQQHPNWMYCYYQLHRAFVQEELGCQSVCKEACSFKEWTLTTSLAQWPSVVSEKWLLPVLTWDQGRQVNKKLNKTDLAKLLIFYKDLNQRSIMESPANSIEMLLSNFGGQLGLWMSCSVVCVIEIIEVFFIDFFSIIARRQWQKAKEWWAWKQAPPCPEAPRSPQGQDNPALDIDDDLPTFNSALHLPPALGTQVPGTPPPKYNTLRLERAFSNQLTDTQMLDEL
# Experiment: Measurement of ENaC activation potency (MED) in ENaC-expressing oocyte, Two Electrode Voltage Clamp
# Assay type: cell-based
# Details: minimum effective dose at which current started to increase; ENaC-expressing African clawed frog oocyte; smaller MED = higher ENaC activation potency
# Protocol: ENaC activation current value, namely, the inward current in ENaC-expressing oocyte was measured as follows.
# According to the method described in Motonao Nakamura, Takao Shimizu: Experiment of African clawed frog oocyte, Experimental Medicine Vol. 11, No. 3, 224-232 (1993), oocyte was collected from African clawed frog, […], and the current value was measured by a Two Electrode Voltage Clamp technique. In the present invention, ND96 (96 mM NaCl, 2 mM KCl, 1 mM MgCl2, 5 mM Hepes, 1.8 mM CaCl2, pH 7.6) was used instead of MBS buffer in the above-mentioned document. Injector NANOLITER 2000 manufactured by World Precision Instruments was used for microinjection, OpusXpress 6000A manufactured by Molecular Devices was used for current value measurement by a Two Electrode Voltage Clamp technique, and Clampfit 10.2 software manufactured by Molecular Devices was used for data analysis.
# Human ENaC δ, β and γ subunit genes shown by SEQ ID NOs: 1, 2 and 3, respectively, in the Sequence Listing were each cloned into a plasmid vector, and used as a template DNA for cRNA synthesis. cRNA was synthesized using MEGAscript kit manufactured by Ambion and according to the method of the manual of the manufacturer.
# A mixture of the same amount of ENaC […] cRNA (0.4 to 0.8 μg/μL), and β and γ subunits cRNA (0.4 μg/μL) was injected into the oocyte of African clawed frog at […] per oocyte, and the oocyte was cultured for 16 hr-72 hr. Thereafter, the oocyte was set on a measuring apparatus OpusXpress 6000A, the electrodes were inserted into the oocyte, the voltage was clamped at a level lower by −30 mV than the resting membrane potential by a Two Electrode Voltage Clamp technique, and the current value was measured.
# To measure the ENaC activation potency, oocyte was stimulated with each test compound, and the minimum effective dose (hereinafter to be abbreviated as MED) of the compound at the time point when the electric current started to increase was measured. In this case, whichever smaller value of the minimum effective dose of the stimulation compound that increased the current value by not less than 10%, and the minimum effective concentration of the compound that increased, by not less than 25%, the electric current increase value due to the stimulation by 5 μM capsazepine (CAS NO.: 138977-28-3), as compared to the current value before addition of the compound and without stimulation, was taken as MED. A smaller MED means higher ENaC activation potency.
# Each test compound was directly dissolved in ND96, or first dissolved in dimethyl sulfoxide (DMSO) to 100 mM, and then prepared by diluting the solution with ND96 to a concentration used for the evaluation. The concentration of the test compound in ND96 was prepared to various concentrations within the range of 0.1 nM to 300 μm.
# ND96 as a perfusion fluid was flown at a rate of 0.5 mL/min through the measuring apparatus OpusXpress 6000A on which ENaC-expressing oocyte was set, the perfusion fluid was temporarily stopped every 3 minutes to add a test compound solution (0.25 mL) dissolved in ND96 at a rate of 0.5 mL/min. In this way, the test compound was contacted with ENaC-expressing oocyte, and whether ENaC is activated by the compound was examined by measuring the current value. After addition of the test compound, feeding of the perfusion fluid was resumed to wash away the compound to be ready for the next addition of the compound.
# The compound was added successively from a low concentration to a high concentration to stimulate ENaC-expressing oocyte. The concentrations actually added was, for example, 1 nM, 3 nM, 10 nM, 30 nM, 100 nM, 300 nM; 1 μM, 3 μM, 10 μm, 30 μm, 100 μm, 300 μm; 1.2 μM, 6 μM, 30 μm, 150 μm of one test compound. The compound was added from low concentrations to high concentrations at 3 min intervals. […]
row,MED [µM],SMILES
1,0.3,CN(CCc1ccccc1O)C(=S)Nc1ccc(O)cc1C(=O)O [Example 124]
2,1,O=C(O)c1ccccc1NC(=S)Nc1ccccc1 [Example 39]
3,0.1,C[C@@H](NC(=S)NCC(O)c1cc(Br)ccc1O)c1cccc(O)c1 (some centres unmarked) [Example 116]
4,10,C[C@H](NC(=S)NCCc1ccccc1)c1ccccc1 [Example 12]
5,1,O=C(O)[C@@H](NC(=S)NCCc1ccccc1)c1ccccc1 [Example 101]
6,10,S=C(NCc1ccccc1)N1CCc2ccccc2C1 [Example 27]
7,3.3,C[C@H](NC(=S)N[C@H](C)c1ccccc1)c1ccccc1 [Example 24]
8,30,COc1cc2c(cc1OC)CN(C(=S)NCCc1ccc(Cl)cc1)CC2 [Example 3]
9,1,"CS(=O)(=O)Nc1cccc(CNC(=S)NCCc2ccccc2)c1 [Example 86, 1-[3-(mesylamino)benzyl]-3-(2-phenylethyl)thiourea]"
10,3 to 10,S=C(NCCc1ccccc1Br)NCc1ccccc1 [Example 74]
11,1,C[C@@H](NC(=S)Nc1c(O)cccc1O)c1ccccc1 [Example 91]
12,10,COc1cccc(CCNC(=S)NCc2ccccc2)c1 [Example 60]
13,30,"COc1cccc(OC)c1CNNC(=S)N[C@H](C)c1ccccc1 [Example 93, 1-(2,6-dimethoxybenzyl)-4-((R)-1-phenylethyl)thiosemicarbazide]"
14,5,S=C(NCCc1ccccc1)NCCc1c[nH]c2ccccc12 [Example 7]
15,3,"Oc1cc2c(cc1O)CN(C(=S)NCCc1ccccc1)CC2 [Example 41, N-(2-phenylethyl)-3,4-dihydro-6,7-dihydroxyisoquinoline-2(1H)-carbothioamide]"
16,10,COc1cc(CNC(=S)NCCc2ccccc2)cc(OC)c1 [Example 67]
17,0.3,C[C@@H](NC(=S)N[C@@H](Cc1ccc(O)cc1)C(=O)O)c1cccc(O)c1 [Example 110]
18,3,NC(=O)[C@@H](NC(=S)NCCc1ccccc1)c1ccccc1 [Example 103]
19,3,S=C(NCCc1ccccc1)Nc1ccccc1 [Example 9]

row,MED [µM],SMILES
1,30,"COC(=O)c1ccccc1/C=N/NC(=S)N[C@H](C)c1ccccc1 [Example 96, methyl 2-{(E)-[4-((R)-1-phenylethyl)thiosemicarbazono]methyl}benzoate]"
2,1 to 3,COc1ccccc1CNC(=S)NCCc1ccccc1 [Example 28]
3,1,O[C@@H](CNC(=S)NCc1ccccc1)c1ccccc1 [Example 71]
4,0.1,C[C@@H](NC(=S)Nc1ccccc1C(=O)O)c1cccc(O)c1 [Example 118]
5,3.3,N#Cc1ccc(CNC(=S)NCCc2ccccc2)cc1 [Example 65]
6,10,S=C(NCCCc1ccccc1)NCc1ccccc1 [Example 18]
7,3 to 10,C[C@@H](NC(=S)N/N=C/c1c(O)cccc1O)c1ccccc1 [Example 94]
8,0.3,C[C@@H](NC(=S)N[C@@H](Cc1ccccc1)C(=O)O)c1cccc(O)c1 [Example 108]
9,3 to 10,S=C(NCCc1ccccc1Cl)NCc1ccccc1 [Example 73]
10,10,COC(=O)c1ccc(CNC(=S)NCCc2ccccc2)cc1 [Example 56]
11,3,Oc1cc2c(cc1O)CN(C(=S)NCCc1ccc(Cl)cc1)CC2 [Example 2]
12,0.6 to 1,Oc1ccccc1CCNC(=S)N[C@@H]1CCc2ccccc21 [Example 88]
13,0.1 to 0.3,"C[C@@H](NC(=S)NC(Cc1ccccc1O)C(=O)O)c1cccc(O)c1 (stereo partly drawn) [Example 106, 2-{3-[(R)-1-(3-hydroxyphenyl)ethyl]thioureido}-3-(2-hydroxyphenyl)propanoic acid]"
14,3.3,Oc1cccc(CCNC(=S)NCc2ccccc2)c1 [Example 63]
15,3,S=C(NCCc1ccccc1)NCc1nc2ccccc2[nH]1 [Example 33]
16,0.3,O=C(O)c1ccccc1NC(=S)Nc1ccc(Cl)cc1 [Example 117]
17,3,COc1ccc(CCNC(=S)NCc2ccccc2)cc1 [Example 16]
18,10,O=C(O)c1ccc(CNC(=S)NCCc2ccccc2)cc1 [Example 23]

row,SMILES,MED [µM]
1,COC(=O)c1ccccc1NC(=S)N(C)CCc1ccccc1 [Example 37],3
